Data set [1] relates to CYP enzymes in human liver microsomes (HLM). The data set is described as follows: Inhibition of 20-HETE production in human liver microsomes (HLM). Format: biochemical. Here is the method:
(§1) Experimental principle: The inhibitory activity of 20-HETE production is evaluated by testing the inhibitory effects of the compound on human liver microsomes (HLM), rat liver microsomes (RLM), mouse liver microsomes (MLM), or […] CYP4 subtype enzymes (CYP4F2). This assay employs HLM, RLM, or MLM along with recombinant CYP4F2 (rCYP4F2) and recombinant CYP4A11 (rCYP4A11), which are […] CYP4 subtype enzymes, to detect the effects of the test compound at different concentrations on the metabolic rate of enzyme-specific substrates, to determine the inhibitory effects of the test compound on CYP enzymes in HLM, RLM, or MLM.
(§2) Experimental methods: Dissolve the test compound in DMSO, and subsequently dilute it with an acetonitrile and DMSO mixture (3:1). Add 2 μl of varying concentrations of the test compound and 100 μl of potassium phosphate buffer containing either liver microsomes or recombinant enzymes to a 96-well plate. After mixing well, transfer 30 μl to another well (in duplicate), add 15 μl of 400 μM substrate solution, and mix well again. Preheat at 37° C. for 10 minutes, and then add 15 μl of 6 mM NADPH and incubate at 37° C. for 25 minutes. After 25 minutes, add 160 μl of acetonitrile solution (containing 0.1 μg/ml internal standard) to stop the reaction. Mix well, centrifuge at 3500 g for 15 minutes, and then analyze the supernatant using LC-MS/MS.
(§3) Plot the compound concentration on the x-axis and the inhibition rate on the y-axis to draw the curve. Use GraphPad Prism 5 software to fit the curve and calculate the IC50. The formula is Y=Bottom+(Top−Bottom)/(1+10^((Log IC50−X)×HillSlope)). X represents the logarithmic concentration of the inhibitor, and Y represents the relative enzyme activity at a given inhibitor concentration (relative to the condition without the inhibitor).
(§4) Calculate the inhibition percentages at concentrations of 1000 nM, 500 nM, or 100 nM as well as the half-maximal inhibitory concentration (IC50) of the test compound from the above experiment.
For orientation: Microsomes from liver hold many membrane-bound enzymes, among them those of drug oxidation.

Data set [2] concerns CYP enzymes in rat liver microsomes (RLM). The data set is described as follows: Inhibition of 20-HETE production in rat liver microsomes (RLM). The format is biochemical. The protocol:
as §1, §2, §3, §4

The nature of data set [3]: Pharmacokinetic (PK) experiment, oral administration in rats. Format: in vivo, Male SD rats. The settings on record: 20 mg/kg; for AUC(0-inf) / Cmax / Tmax / half-life / AUC(0-t): male, SD, rat, plasma; for AUC(0-t): read-out: AUC0-24. The protocol: Male SD rats, weighing 180-250 grams, were fasted overnight before testing. The test compound was dissolved in 30% sulfobutylether-β-cyclodextrin and administered orally at a dose of 20 mg/kg. Blood was collected from the tail vein at 15 minutes, 30 minutes, and 1, 2, 4, 6, 8, and 24 hours after administration. Approximately 0.3 ml of blood was collected at each time point, placed in a centrifuge tube containing K2-EDTA, and centrifuged (2000 g for 10 minutes at 4° C.) to take the plasma, which was then stored in an ultra-low temperature freezer at −70° C. or below. A 50 μL plasma sample was mixed with 135 μL of acetonitrile (containing 0.5 μg/mL internal standard) and vortexed for protein precipitation. After centrifugation, the supernatant was taken for LC-MS/MS analysis.

Data set [4] has as its system CYP enzymes in mouse liver microsomes (MLM). The data set can be described thus: Inhibition of 20-HETE production in mouse liver microsomes (MLM). As to conditions: 1000 nM. The format is biochemical. Here is the method:
as §1, §2, §3, §4

In general, IC50 refers to the midpoint of a concentration-inhibition curve. High values mean lower potency, low ones higher potency. In general, AUC(0-inf) refers to the area under the concentration-time curve extrapolated to infinity. Lower therefore signals less exposure. Broadly, the Cmax is the highest concentration seen after dosing. By Tmax is commonly meant the time at which the peak concentration occurs. A word on the half-life: it is the time needed for the level to fall by half in the phase considered.

`O=C(C1CCN(c2ccc(-c3cn[nH]c3)cc2F)CC1)N1CC2CCCC2C1` (centres unmarked) [Compound 153, (1-(2-fluoro-4-(1H-pyrazol-4-yl)phenyl)piperidin-4-yl)(hexahydrocyclopenta[c]pyrrol-2 (1H)-yl) methanone]: in data set [1], half-maximal inhibition (IC50) was put at 32.4 nM and the “HLM (% inh @ 100 nM)” value worked out at 74.69%. In data set [2], this compound registered an IC50 of 361 nM. Moreover, in data set [3], the “absorption and blood exposure after oral administration (in words)” value (from here on “absorption and blood exposure”) is “well absorbed and exhibit high blood exposure”; the AUC(0-inf) came to 566000 ng·h/mL; the Cmax was determined as 75200 ng/mL; the Tmax amounted to 2 h. In addition, in data set [3], the half-life is 3.26 h and the AUC(0-t) stood at 558000 ng·h/mL.
As for `COC1(C(=O)N2CCC(c3ccc(-c4cn[nH]c4)cc3)CC2)CCCCC1` [Compound 150, (4-(4-(1H-pyrazol-4-yl)phenyl)piperidin-1-yl)(1-methoxycyclohexyl) methanone], the “HLM (% inh @ 100 nM)” value in data set [1] was found to be 84.56%. The “MLM (% inh @ 1000 nM)” value in data set [4] came out at 40.18%.
`O=C(C1CCC(O)C1)N1CCC(c2ccc(-c3cn[nH]c3)cc2F)CC1` (single isomer, unassigned) [Compound 145b, (4-(2-fluoro-4-(1H-pyrazol-4-yl)phenyl)piperidin-1-yl)(3-hydroxycyclopentyl) methanone]: the “HLM (% inh @ 100 nM)” value in data set [1] turned out to be 88.49%. The “MLM (% inh @ 1000 nM)” value in data set [4] amounted to 48.10%.
The matching figures for `O=C(C1CCCCC1O)N1CCC(c2ccc(-c3cn[nH]c3)cc2F)CC1` (single isomer, unassigned) [Compound 149b, (4-(2-fluoro-4-(1H-pyrazol-4-yl)phenyl)piperidin-1-yl)(2-hydroxycyclohexyl) methanone]: 83.42% and 47.54%.
With `O=C1CCCCCN1CC1CCN(c2ccc(-c3cn[nH]c3)cc2F)CC1` [Compound 161, 1-((1-(2-fluoro-4-(1H-pyrazol-4-yl)phenyl)piperidin-4-yl)methyl) azepan-2-one], the “HLM (% inh @ 100 nM)” value in data set [1] was found to be 86.45%. Moreover, in data set [4], the “MLM (% inh @ 1000 nM)” value is on record as 59.36%.
On to `O=C(C1CCOC1)N1CCC(c2ccc(-c3cn[nH]c3)cc2F)CC1` (centres unmarked) [Compound 144, (4-(2-fluoro-4-(1H-pyrazol-4-yl)phenyl)piperidin-1-yl)(tetrahydrofuran-3-yl) methanone], for which the “HLM (% inh @ 100 nM)” value in data set [1] stood at 87.74%. Also, the “MLM (% inh @ 1000 nM)” value in data set [4] is listed as 60.66%.
On to `O=C(N1CCCC1)N1CCC(c2ccc(-c3cn[nH]c3)c(F)c2F)CC1` [Compound 71, (4-(2,3-difluoro-4-(1H-pyrazol-4-yl)phenyl)piperidin-1-yl)(pyrrolidin-1-yl) methanone], for which, in data set [1], the IC50 is 19.7 nM and the “HLM (% inh @ 500 nM)” value is given as 95.89%. Further, in data set [2], the “RLM (% inh @ 500 nM)” value is listed as 75.13%. In data set [3], the “absorption and blood exposure” value is “well absorbed and exhibit high blood exposure”; the AUC(0-inf) is 58000 ng·h/mL; the Cmax worked out at 8730 ng/mL; the Tmax was determined as 2 h. Besides, in data set [3], the half-life was 2.41 h and the AUC(0-t) was 57900 ng·h/mL.
For the compound `O=C(C1CCC(F)(F)CC1)N1CCC(c2ccc(-c3cn[nH]c3)c(F)c2F)CC1` [Compound 101, (4-(2,3-difluoro-4-(1H-pyrazol-4-yl)phenyl)piperidin-1-yl)(4,4-difluorocyclohexyl) methanone], the “HLM (% inh @ 500 nM)” value in data set [1] was 78.37%. The “RLM (% inh @ 500 nM)” value in data set [2] came to 69.34%.
In the case of `O=C(Cc1ccccc1)N1CCC(c2ccc(-c3cn[nH]c3)c(F)c2F)CC1` [Compound 111, 1-(4-(2,3-difluoro-4-(1H-pyrazol-4-yl)phenyl)piperidin-1-yl)-2-phenylethan-1-one], the “HLM (% inh @ 500 nM)” value in data set [1] is given as 82.17%. The “RLM (% inh @ 500 nM)” value in data set [2] worked out at 84.99%.
Consider `O=C(C1CCN(c2ccc(-c3cn[nH]c3)cc2)CC1)N1CCCCC1` [Compound 54, (1-(4-(1H-pyrazol-4-yl)phenyl)piperidin-4-yl)(piperidin-1-yl) methanone], for which the “HLM (% inh @ 500 nM)” value in data set [1] is recorded as 81.26%. Further, in data set [2], the IC50 was found to be 995 nM and the “RLM (% inh @ 500 nM)” value worked out at 32.02%.
As to `O=C(N1CCCCC1)N1CCN(c2ccc(-c3cn[nH]c3)c(F)c2F)CC1` [Compound 88, (4-(2,3-difluoro-4-(1H-pyrazol-4-yl)phenyl)piperazin-1-yl)(piperidin-1-yl) methanone], the “HLM (% inh @ 500 nM)” value in data set [1] worked out at 78.05%. In addition, the “RLM (% inh @ 500 nM)” value in data set [2] turned out to be 68.94%.
Consider `O=C(C1CCCC1)N1CCC(c2ccc(-c3cn[nH]c3)c(F)c2F)CC1` [Compound 98, cyclopentyl(4-(2,3-difluoro-4-(1H-pyrazol-4-yl)phenyl)piperidin-1-yl) methanone], for which, in data set [1], the IC50 came to 22 nM and the “HLM (% inh @ 500 nM)” value was found to be 96.23%. Further, in data set [2], half-maximal inhibition (IC50) was put at 9.68 nM. Besides, in data set [3], the “absorption and blood exposure” value is “well absorbed and exhibit high blood exposure”; the AUC(0-inf) amounted to 98600 ng·h/mL; the peak level (Cmax) was 8700 ng/mL; the Tmax was found to be 3 h. Besides, in data set [3], the half-life was 2.38 h and the AUC(0-t) was 98400 ng·h/mL.
On to `O=C1CCC(=O)N1CC1CCN(c2ccc(-c3cn[nH]c3)cc2)CC1` [Compound 28, 1-((1-(4-(1H-pyrazol-4-yl)phenyl)piperidin-4-yl)methyl)pyrrolidine-2,5-dione], for which, in data set [1], the “HLM (% inh @ 500 nM)” value worked out at 55.98%. For the same compound, in data set [2], the “RLM (% inh @ 500 nM)” value is 16.98%.
As for `O=S(=O)(C1CCCCC1)N1CCC(c2ccc(-c3cn[nH]c3)cc2F)CC1` [Compound 119, 1-(cyclohexylsulfonyl)-4-(2-fluoro-4-(1H-pyrazol-4-yl)phenyl)piperidine], the “HLM (% inh @ 500 nM)” value in data set [1] was 87.83%. For the same compound, in data set [2], it took 116 nM to reach half-maximal inhibition (IC50) and the “RLM (% inh @ 500 nM)” value is reported as 75.79%.
`O=C1N(CC2CCN(c3ccc(-c4cn[nH]c4)cc3)CC2)CCC12CCCCC2` [Compound 31, 2-((1-(4-(1H-pyrazol-4-yl)phenyl)piperidin-4-yl)methyl)-2-azaspiro[4.5]decan-1-one]: in data set [1], the “HLM (% inh @ 500 nM)” value came to 68.02%. Also, in data set [2], the “RLM (% inh @ 500 nM)” value is recorded as 14.73%.
Regarding `O=C(NC1CCCC1)C1CCN(c2ccc(-c3cn[nH]c3)cc2)CC1` [Compound 55, 1-(4-(1H-pyrazol-4-yl)phenyl)-N-cyclopentylpiperidine-4-carboxamide], in data set [1], the “HLM (% inh @ 500 nM)” value is given as 62.73%. Also, the “RLM (% inh @ 500 nM)” value in data set [2] came to 21.92%.
Turning to `C[C@@H]1CN(C(=O)N2CCCC2)CCN1c1ccc(-c2cn[nH]c2)c(F)c1F` [Compound 104, (R)-(4-(2,3-difluoro-4-(1H-pyrazol-4-yl)phenyl)-3-methylpiperazin-1-yl)(pyrrolidin-1-yl) methanone], the “HLM (% inh @ 500 nM)” value in data set [1] stood at 78.18%. In addition, the “RLM (% inh @ 500 nM)” value in data set [2] is 73.19%.
Take `O=C(NC1CCCC1)N1CCN(c2ccc(-c3cn[nH]c3)c(F)c2F)CC1` [Compound 89, N-cyclopentyl-4-(2,3-difluoro-4-(1H-pyrazol-4-yl)phenyl)piperazine-1-carboxamide]: the “HLM (% inh @ 500 nM)” value in data set [1] is recorded as 94.11%. Besides, the “RLM (% inh @ 500 nM)” value in data set [2] was 55.76%.
On to `O=C(CCCCCO)NCC1CCN(c2ccc(-c3cn[nH]c3)cc2)CC1` [Compound 45, N-((1-(4-(1H-pyrazol-4-yl)phenyl)piperidin-4-yl)methyl)-6-hydroxyhexanamide], for which the “HLM (% inh @ 500 nM)” value in data set [1] stood at 57.83%. The “RLM (% inh @ 500 nM)” value in data set [2] stood at 26.43%.
In the case of `O=C(CCCCCc1ccccc1)NCC1CCN(c2ccc(-c3cn[nH]c3)cc2)CC1` [Compound 113, N-((1-(4-(1H-pyrazol-4-yl)phenyl)piperidin-4-yl)methyl)-6-phenylhexanamide], in data set [1], 20.6 nM corresponded to half-maximal inhibition (IC50) and the “HLM (% inh @ 500 nM)” value worked out at 87.72%. Moreover, in data set [2], it took 15.5 nM to reach half-maximal inhibition (IC50) and the “RLM (% inh @ 500 nM)” value is 57.83%. In data set [3], the “absorption and blood exposure” value is “well absorbed and exhibit high blood exposure”; the AUC(0-inf) is 10100 ng·h/mL; the Cmax was 2420 ng/mL; the Tmax turned out to be 1.33 h. Moreover, in data set [3], the half-life is 2.93 h and the AUC(0-t) came to 10100 ng·h/mL.

(Values after patent US20250034116A1, “1,4-DIHETEROCYCLIC SUBSTITUTED AROMATIC RING OR AROMATIC HETEROCYCLIC COMPOUND AND USE THEREOF” (BeBetter Med Inc., priority 2022, published 2025).)
